Source: patent publication US20190211020A1 (Agency for Science, Technology and Research, priority 2012, published 2019)
Where a name gives a salt, the structure may show the parent alone.

System: eIF4E Ser209 phosphorylation in Hela cells
Experiment: MNK cell-based assay (AlphaScreen SureFire, eIF4E Ser209 phosphorylation)
Conditions: Homo sapiens, HeLa, 2 h, read-out: IC50 Hela
Excerpt: It has been reported that Ser209 of eIF4E is solely phosphorylated by the MNK enzymes. The ability of compounds to inhibit this process in Hela cells was investigated using the AlphaScreen SureFire® assay platform from Perkin Elmer (Waltham, Mass.). eIF4E phosphorylated on Ser209 is recognized by two antibodies, the first which is fused to a streptavidin coated donor bead binds to an epitope away from Ser209, the second which is fused to a protein A conjugated acceptor bead binds to phosphorylated Ser209. The phosphorylation of eIF4E on Ser209 brings the two antibodies into close proximity and when excited by a laser a singlet oxygen is released by the donor bead which excites the acceptor bead resulting in the emission of light. This enables the monitoring of eIF4E Ser209 phosphorylation and its inhibition in a cellular context.
Hela cells were seeded into microtitre plates (30,000 cells per well) in 100 μl of culture medium and incubated at 37° C. for 24 hours. The media was then removed by aspiration and the cells resuspended in 50 μl of serum free medium containing the test compound and incubated at 37° C. for 2 hours. The culture medium was again removed by aspiration and the cells resuspended in lysis buffer (provided in Perkin Elmer SureFire® Assay Kit). After agitation at 350 rpm for 20 minutes at 22° C., 4 μl was transferred to a 384 well OptiPlate™ (Perkin Elmer, Waltham, Mass.). To each well was added 5 μl of acceptor mix; the plate was sealed and agitated gently at 22° C. for 2 hours. Then, in subdued light, 2 μl of donor mix was added to each well, the plate was sealed, wrapped in aluminum foil and agitated gently at 22° C. for 2 hours. Emission was measured using the EnVision® plate reader (Perkin Elmer, Waltham, Mass.).
Inhibition constants (IC50) were determined by plotting AlphaScreen signal versus log compound concentration and fitting with a non-linear regression algorithm using GraphPad Prism (GraphPad Software Inc.).

| Structure (SMILES) | IC50 |
| --- | --- |
| O=C1CCN(C(=O)c2ccc(-c3cn4c(-c5ccc(Cl)cc5)cnc4cn3)cc2)CC1 [Example 43, 1-(4-(3-(4-chlorophenyl)imidazo[1,2-a]pyrazin-6-yl)benzoyl)piperidin-4-one] | < 1000 nM |

Same assay, conditions: Homo sapiens; eIF4E Ser209 phosphorylation, Hela cells, 2 hours; read-out: IC50 Hela

| Structure (SMILES) | IC50 |
| --- | --- |
| CC1(N)CCN(C(=O)c2ccc(-c3cn4c(-c5ccc(C#N)cc5)cnc4cn3)cc2F)CC1 [Example 30, 4-(6-(4-(4-amino-4-methylpiperidine-1-carbonyl)-3-fluorophenyl)imidazo[1,2-a]pyrazin-3-yl)benzonitrile] | < 1000 nM |
| N#Cc1ccc(-c2cnc3cnc(-c4ccc(C(=O)N5CCC(N)CC5)c(Cl)c4)cn23)cc1 [Example 31, 4-(6-(4-(4-aminopiperidine-1-carbonyl)-3-chlorophenyl)imidazo[1,2-a]pyrazin-3-yl)benzonitrile] | < 1000 nM |
| CC1(N)CCN(C(=O)c2ccc(-c3cn4c(-c5ccc(C#N)cc5)cnc4cn3)cc2Cl)CC1 [Example 32, 4-(6-(4-(4-amino-4-methylpiperidine-1-carbonyl)-3-chlorophenyl)imidazo[1,2-a]pyrazin-3-yl)benzonitrile] | < 1000 nM |
| CN1CCN(C(=O)c2ccc(-c3cn4c(-c5ccc(C#N)cc5)cnc4cn3)c(O)c2)CC1 [Example 38, 4-(6-(2-hydroxy-4-(4-methylpiperazine-1-carbonyl)phenyl)imidazo [1,2-a]pyrazin-3-yl)benzonitrile] | < 1000 nM |
| COc1cc(-c2cn3c(-c4ccc(C#N)cc4)cnc3cn2)ccc1C(=O)N1CCN(C)CC1 [Example 39, 4-(6-(3-methoxy-4-(4-methylpiperazine-1-carbonyl)phenyl)imidazo[1,2-a]pyrazin-3-yl)benzonitrile] | < 1000 nM |
| CN1CCN(C(=O)c2ccc(-c3cn4c(-c5ccc(Cl)cc5)cnc4cn3)cc2)CC1 [Example 41, (4-(3-(4-chlorophenyl)imidazo [1,2-a]pyrazin-6-yl)phenyl)(4-methylpiperazin-1-yl)methanone] | < 1000 nM |
| NC(=O)c1ccc(-c2cn3c(-c4ccc(Cl)cc4)cnc3cn2)cc1 [Example 42, 4-(3-(4-chlorophenyl)imidazo[1,2-a]pyrazin-6-yl)benzamide] | < 1000 nM |
| CCN1CCN(C(=O)c2ccc(-c3cn4c(-c5ccc(Cl)cc5)cnc4cn3)cc2)CC1 [Example 45, (4-(3-(4-chlorophenyl)imidazo [1,2-a]pyrazin-6-yl)phenyl)(4-ethylpiperazin-1-yl)methanone] | < 1000 nM |
| O=C(c1ccc(-c2cn3c(-c4ccc(Cl)cc4)cnc3cn2)cc1)N1CCNCC1 [Example 46, (4-(3-(4-chlorophenyl)imidazo[1,2-a]pyrazin-6-yl)phenyl)(piperazin-1-yl)methanone 2,2,2-trifluoroacetate salt] | < 1000 nM |
| O=C(c1ccc(-c2cn3c(-c4ccc(Cl)cc4)cnc3cn2)cc1)N1CCC(NC(=O)C(F)(F)F)CC1 [Example 48, N-(1-(4-(3-(4-chlorophenyl)imidazo [1,2-a]pyrazin-6-yl)benzoyl)piperidin-4-yl)-2,2,2-trifluoroacetamide] | < 1000 nM |
| N#Cc1ccc(-c2cnc3ccc(-c4ccc(C(=O)N5CCC(O)CC5)cc4)nn23)cc1 [Example 55, 4-(6-(4-(4-hydroxypiperidine-1-carbonyl)phenyl)imidazo [1,2-b]pyridazin-3-yl)benzonitrile] | < 1000 nM |
| N#Cc1ccc(-c2cnc3ccc(-c4ccc(C(=O)N5CCC(N)CC5)cc4)nn23)cc1 [Example 56, 4-(6-(4-(4-aminopiperidine-1-carbonyl)phenyl)imidazo[1,2-b]pyridazin-3-yl)benzonitrile] | < 1000 nM |
| CC(=O)NC1CCN(C(=O)c2ccc(-c3ccc4ncc(-c5ccc(C#N)cc5)n4n3)cc2)CC1 [Example 57, N-(1-(4-(3-(4-cyanophenyl)imidazo[1,2-b]pyridazin-6-yl)benzoyl)piperidin-4-yl)acetamide] | < 1000 nM |
| CC1(N)CCN(C(=O)c2ccc(-c3ccc4ncc(-c5ccc(C#N)cc5)n4n3)cc2)CC1 [Example 58, 4-(6-(4-(4-amino-4-methylpiperidine-1-carbonyl)phenyl)imidazo[1,2-b]pyridazin-3-yl)benzonitrile] | < 1000 nM |
| CC(C)N1CCN(C(=O)c2ccc(-c3ccc4ncc(-c5ccc(C#N)cc5)n4n3)cc2)CC1 [Example 59, 4-(6-(4-(4-isopropylpiperazine-1-carbonyl)phenyl)imidazo [1,2-b]pyridazin-3-yl)benzonitrile] | < 1000 nM |
| CNC1CCN(C(=O)c2ccc(-c3ccc4ncc(-c5ccc(C#N)cc5)n4n3)cc2)CC1 [Example 60, 4-(6-(4-(4-(methylamino)piperidine-1-carbonyl)phenyl)imidazo[1,2-b]pyridazin-3-yl)benzonitrile] | < 1000 nM |

| Structure (SMILES) | IC50 |
| --- | --- |
| CN(C)C1CCN(C(=O)c2ccc(-c3ccc4ncc(-c5ccc(C#N)cc5)n4n3)cc2)CC1 [Example 63] | < 1000 nM |
| N#Cc1ccc(-c2cnc3ccc(-c4ccc(C(=O)N5CCCOCC5)cc4)nn23)cc1 [Example 64, 4-(6-(4-(1,4-oxazepane-4-carbonyl)phenyl)imidazo[1,2-b]pyridazin-3-yl)benzonitrile] | < 1000 nM |
| N#Cc1ccc(-c2cnc3ccc(-c4ccc(C(=O)N5CCNCC5)cc4)nn23)cc1 [Example 65, 4-(6-(4-(piperazine-1-carbonyl)phenyl)imidazo [1,2-b]pyridazin-3-yl)benzonitrile] | < 1000 nM |
| CCC1(NC(C)=O)CCN(C(=O)c2ccc(-c3ccc4ncc(-c5ccc(C#N)cc5)n4n3)cc2)CC1 [Example 66, N-(1-(4-(3-(4-cyanophenyl)imidazo[1,2-b]pyridazin-6-yl)benzoyl)-4-ethylpiperidin-4-yl)acetamide] | < 1000 nM |
| N#Cc1ccc(-c2cnc3ccc(-c4ccc(C(=O)N5CCNC(=O)C5)cc4)nn23)cc1 [Example 68, 4-(6-(4-(3-oxopiperazine-1-carbonyl)phenyl)imidazo [1,2-b]pyridazin-3-yl)benzonitrile] | < 1000 nM |
| CN1CCN(C(=O)c2ccc(-c3ccc4ncc(-c5ccc(C#N)cc5)n4n3)cc2)CC1=O [Example 69, 4-(6-(4-(4-methyl-3-oxopiperazine-1-carbonyl)phenyl)imidazo[1,2-b]pyridazin-3-yl)benzonitrile] | < 1000 nM |
| CN1CCN(C2CCN(C(=O)c3ccc(-c4ccc5ncc(-c6ccc(C#N)cc6)n5n4)cc3)CC2)CC1 [Example 70, 4-(6-(4-(4-(4-methylpiperazin-1-yl)piperidine-1-carbonyl)phenyl)imidazo [1,2-b]pyridazin-3-yl)benzonitrile] | < 1000 nM |
| N#Cc1ccc(-c2cnc3ccc(-c4ccc(C(=O)N5CCC6(CCCCN6)CC5)cc4)nn23)cc1 [Example 71, 4-(6-(4-(1,9-diazaspiro[5.5]undecane-9-carbonyl)phenyl)imidazo [1,2-b]pyridazin-3-yl)benzonitrile] | < 1000 nM |
| CN1CCN(C(=O)c2ccc(-c3ccc4ncc(-c5ccc(C#N)cc5)n4n3)cc2Cl)CC1 [Example 72, 4-(6-(3-chloro-4-(4-methylpiperazine-1-carbonyl)phenyl)imidazo[1,2-b]pyridazin-3-yl)benzonitrile] | < 1000 nM |
| CN1CCN(C(=O)c2ccc(-c3ccc4ncc(-c5ccc(C#N)cc5)n4n3)cc2F)CC1 [Example 73, 4-(6-(3-fluoro-4-(4-methylpiperazine-1-carbonyl)phenyl)imidazo[1,2-b]pyridazin-3-yl)benzonitrile] | < 1000 nM |
| Cc1cc(-c2ccc3ncc(-c4ccc(C#N)cc4)n3n2)ccc1C(=O)N1CCN(C)CC1 [Example 74, 4-(6-(3-methyl-4-(4-methylpiperazine-1-carbonyl)phenyl)imidazo[1,2-b]pyridazin-3-yl)benzonitrile] | < 1000 nM |
| COc1cc(C(=O)N2CCN(C)CC2)ccc1-c1ccc2ncc(-c3ccc(C#N)cc3)n2n1 [Example 78, 4-(6-(2-methoxy-4-(4-methylpiperazine-1-carbonyl)phenyl)imidazo[1,2-b]pyridazin-3-yl)benzonitrile] | < 1000 nM |
| CN1CCN(C(=O)c2ccc(-c3ccc4ncc(-c5ccc(C#N)cc5)n4n3)cc2[N+](=O)[O-])CC1 [Example 79, 4-(6-(4-(4-methylpiperazine-1-carbonyl)-3-nitrophenyl)imidazo[1,2-b]pyridazin-3-yl)benzonitrile] | < 1000 nM |
| CC(=O)Nc1cc(-c2ccc3ncc(-c4ccc(C#N)cc4)n3n2)ccc1C(=O)N1CCC(N(C)C)CC1 [Example 81, N-(5-(3-(4-cyanophenyl)imidazo[1,2-b]pyridazin-6-yl)-2-(4-(dimethylamino)piperidine-1-carbonyl)phenyl)acetamide] | < 1000 nM |
| CN1CCN(C(=O)c2ccc(-c3ccc4ncc(-c5ccc6c(c5)CC(=O)N6)n4n3)cc2)CC1 [Example 85, 5-(6-(4-(4-methylpiperazine-1-carbonyl)phenyl)imidazo [1,2-b]pyridazin-3-yl)indolin-2-one] | < 1000 nM |
| CN1CCN(C(=O)c2ccc(-c3ccc4ncc(-c5ccc6[nH]ncc6c5)n4n3)cc2)CC1 [Example 86, (4-(3-(1H-indazol-5-yl)imidazo[1,2-b]pyridazin-6-yl)phenyl)(4-methylpiperazin-1-yl)methanone] | < 1000 nM |
